Measured values as given in patent publication US12459918B2, “Isoquinolinone derivatives serving as rock protein kinase inhibitors and use thereof” (GUANGZHOU OCUSUN OPHTHALMIC BIOTECHNOLOGY CO., LTD., priority 2019, dated 2025).

Experiment: Toxicokinetics experiment: active compounds in plasma after 14 days of continuous administration
Type: in vivo, New Zealand rabbits
Conditions: for Concentration of active compounds in plasma, Group 1 / Concentration of active compounds in plasma, Group 2: 8.0 mg/mL eye-drop, after 14 days of continuous administration
Method: Experimental Example 5. Toxicokinetics Experiment
The production rate of active drug ingredients and the exposure amount of active drug ingredients of the compound in plasma were detected after 14 days of continuous administration.
Male New Zealand rabbits, aged 3-6 months, weighted 2.0-5.0 kg, purchased from PizhouDongfang Breeding Co. Ltd.
After 14 days of continuous administration, blood samples from the group administrated with compound 63 (8.0 mg/mL) were collected at 0 hour (before administration) and in 0.5, 1, 2, 4, 8, and 24 hours after administration on Days 14-15. About 0.8 mL of whole blood was collected from the auricular artery or the saphenous vein of the hind limb (or other appropriate sites) of toxicokinetics experiment animals, and was placed in labeled collection tubes using ethylenediaminetetraacetic acid dipotassium (K2EDTA) as an anticoagulant. Plasma was obtained by centrifugation for 10 minutes at 3000 rpm and under the condition of 2° C. to 8° C. in 60 minutes after blood collection. All samples were quantitatively detected for the content of the administered compounds in plasma of the experimental animals by liquid chromatography-coupled mass spectrometry (LC-MS) and mass spectrometry (MS) technology.

[1] = Time 0.00 hour (before administration)

Cc1ccc(C(=O)OCn2cc(C)c3c(S(=O)(=O)N4CC[C@H](N)C4)cccc3c2=O)c(C)c1 [Compound 63]
Concentration of active compounds in plasma, Group 1 [1]: BQL | Concentration of active compounds in plasma, Group 2 [1]: BQL | Concentration of active compounds in plasma, Group 1 (Time 8.00 hour): BQL | Concentration of active compounds in plasma, Group 2 (Time 8.00 hour): BQL | Concentration of active compounds in plasma, Group 1 (Time 24.0 hour): BQL | Concentration of active compounds in plasma, Group 2 (Time 24.0 hour): BQL | Metabolite concentration in plasma (8 hours after administration, high dose of 8 mg/mL): below the detection limit
